From patent US6759403B2, “Metalloporphyrins and their uses as radiosensitizers for radiation therapy” (Brookhaven Science Associates, LLC, priority 2001, dated 2004)

Tests used:
EMT-6 mammary carcinomas = assay: Boron biodistribution in mice with EMT-6 tumors of the dorsal thorax (Example 2); assay type: in vivo, BALB/c mice; conditions: 186 μg CuTCPBr/g body weight total, 6 ip injections over 2 days; 4 days after last injection
Description: Five BALB/c mice bearing subcutaneously implanted EMT-6 mammary carcinomas on the dorsal thorax were given a total dose of 186 μg CuTCPBr/g body weight in 6 intraperitoneal (ip) injections over a period of 2 days. Four days after the last injection mice were euthanized and the average boron concentrations (μg/g wet tissue) were measured for different types of tissue.

[1] = tested on: subcutaneous 9L gliosarcomas; assay: Boron biodistribution after intravenous infusion in rat 9L gliosarcoma model (Examples 6 and 7); assay type: in vivo, Fischer 344 rats
Description: This example used the experimental rat 9L gliosarcoma model and the protocol used to administer porphyrins by intravenous infusion that were reported in J. NeuroOncol, 52, 111-117, 2001. Six (6) male Fischer 344 rats bearing subcutaneous 9L gliosarcomas were infused intravenously with CuTCPBr at a total dose of 220 μg/gbw over 48 hours. Tumor and blood were sampled from each at zero, one, two and three days after the end of infusion and the boron concentrations measured. In this example, the biodistribution of CuTCPBr was compared to CuTCPH. A group of six (6) male Fischer 344 rats bearing subcutaneous 9L gliosarcomas were infused intravenously with CuTCPBr at a total dose of 220 μg/gbw over 48 hours. A second group of four (4) male Fischer 344 rats bearing subcutaneous 9L gliosarcomas were infused intravenously with CuTCPH at a total dose of 195 μg/gbw. over 48 hours. Boron concentrations in tissues from both groups of rats were taken three days after the end of infusion. The results for the CuTCPBr group of rats are listed in column 2 of Table 6 and the results for the CuTCPH group of rats are listed in column 4 of Table 6. To account for the difference in porphyrin dose (195 μg/gbw for CuTCPH versus 220 μg/gbw for CuTCPBr) and the difference in % boron in each porphyrin (31.8% for CuTCPH versus 21.7 for CuTCPBr), the boron concentrations in tissues from rats given CuTCPBr were normalized so that they would be equivalent to the boron concentrations of rats given CuTCPH. This was done by multiplying the boron concentrations in the CuTCPBr group of rats by the CuTCPBr to CuTCPH boron dose ratio of 1.3. The normalized boron concentrations for the CuTCPBr group of rats are listed in column 3 of Table 6.

[2] = 220 μg/gbw CuTCPBr (47.7 μg B/gbw) iv over 48 hours, 3 days after end of infusion
[3] = CuTCPBr 220 μg/gbw iv infusion over 48 hours, 0 days after end of infusion
[4] = CuTCPBr 220 μg/gbw iv infusion over 48 hours, 1 day after end of infusion
[5] = CuTCPBr 220 μg/gbw iv infusion over 48 hours, 2 days after end of infusion
[6] = CuTCPBr 220 μg/gbw iv infusion over 48 hours, 3 days after end of infusion
[7] = normalized to boron dose 61.8 μg B/gbw (x1.3), 3 days after end of infusion

In the case of “copper octabromotetracarboranylphenylporphyrin [CuTCPBr]”, the “Boron Concentration, Blood” value (EMT-6 mammary carcinomas) is reported as 0.6 ± 0.2 μg B/g wet tissue, the “Boron Concentration, Brain” value (EMT-6 mammary carcinomas) is reported as 0.5 ± 0.1 μg B/g wet tissue and the “Boron Concentration, Liver” value (EMT-6 mammary carcinomas) is reported as 272 ± 93 μg B/g wet tissue. For the same substance, the “Boron Concentration, Tumor” value (EMT-6 mammary carcinomas) was 84 ± 15 μg B/g wet tissue, the “Boron Concentration, Brain” value [1, 2] was 0.4 (0) μg/g and the “Boron Concentration, Kidney” value [1, 2] was 11 (1) μg/g. The “Boron Concentration, Lacrimal Gland” value [1, 2] was 28 (13) μg/g, the “Boron Concentration, Liver” value [1, 2] was 477 (25) μg/g and the “Boron Concentration, Lung” value [1, 2] was 123 (42) μg/g. For the same substance, the “Boron Concentration, Lymph Nodes” value [1, 2] was 202 (32) μg/g, the “Boron Concentration, Parotid Gland” value [1, 2] was 85 (36) μg/g and the “Boron Concentration, Spinal Cord” value [1, 2] was 0.9 (0.4) μg/g. The “Boron Concentration, Spleen” value [1, 2] was 632 (41) μg/g, the “Boron Concentration, Submaxillary Gland” value [1, 2] was 68 (8) μg/g and the “Boron Concentration, Tongue” value [1, 2] was 30 (3) μg/g. For the same substance, the “Boron concentration, Ears” value [1, 2] was 8.4 (1.2) μg/g, the “Boron Concentration, Tumor” value ([1]; CuTCPBr 220 μg/gbw (47.7 μg B/gbw) iv infusion over 48 hours, 3 days after end of infusion) was 52 (19) μg/g and the “Boron Concentration, Blood” value [1, 3] was 360 (30) μg/g. For the same substance, the “Boron Concentration, Tumor” value [1, 3] was 67 (26) μg/g, the “Tumor to Blood Ratio (boron)” value [1, 3] was 0.19 and the “Boron Concentration, Blood” value [1, 4] was 150 (20) μg/g. For the same substance, the “Boron Concentration, Tumor” value [1, 4] was 64 (17) μg/g, the “Tumor to Blood Ratio (boron)” value [1, 4] was 0.43 and the “Boron Concentration, Blood” value [1, 5] was 23 (7) μg/g. For the same substance, the “Boron Concentration, Tumor” value [1, 5] was 75 (34) μg/g, the “Tumor to Blood Ratio (boron)” value [1, 5] was 3.3 and the “Boron Concentration, Blood” value [1, 6] was 1.4 (0.1) μg/g. For the same substance, the “Tumor to Blood Ratio (boron)” value [1, 6] was 38, the “Boron Concentration, Brain, CuTCPBr Normalized” value [1, 7] was 0.5 µg/g and the “Boron Concentration, Ears, CuTCPBr Normalized” value [1, 7] was 11 µg/g. For the same substance, the “Boron Concentration, Kidney, CuTCPBr Normalized” value [1, 7] was 14 µg/g, the “Boron Concentration, Lacrimal Gland, CuTCPBr Normalized” value [1, 7] was 37 µg/g and the “Boron Concentration, Liver, CuTCPBr Normalized” value [1, 7] was 623 µg/g. For the same substance, the “Boron Concentration, Lung, CuTCPBr Normalized” value [1, 7] was 161 µg/g, the “Boron Concentration, Lymph Nodes, CuTCPBr Normalized” value [1, 7] was 264 µg/g and the “Boron Concentration, Parotid Gland, CuTCPBr Normalized” value [1, 7] was 111 µg/g. The “Boron Concentration, Spinal Cord, CuTCPBr Normalized” value [1, 7] was 1.2 µg/g, the “Boron Concentration, Spleen, CuTCPBr Normalized” value [1, 7] was 825 µg/g and the “Boron Concentration, Submaxillary Gland, CuTCPBr Normalized” value [1, 7] was 89 µg/g. The “Boron Concentration, Tongue, CuTCPBr Normalized” value [1, 7] was 39 µg/g, the “Boron Concentration, Tumor, CuTCPBr Normalized” value [1, 7] was 68 µg/g and the Toxicity ([1]; rats, 220 μg/gbw CuTCPBr or 195 μg/gbw CuTCPH iv over 48 hours) was “does not appear to be a major problem”.
